In US11369623B2, “Anticancer combination of a CBP/catenin inhibitor and an immune checkpoint inhibitor” (PRISM Pharma Co., Ltd., priority 2015, dated 2022):

Columns and labels:
[1] = system: 624 mel cells and 928 mel cells; assay: IL-10 production by melanoma cells (ELISA of culture supernatant); type: cell-based, human; settings: 0.2 μM, 24 hr, FIG. 5
Method: IL-10 Production Suppressive Action of CBP/Catenin Inhibitor (Compound 1)
624 mel cells and 928 mel cells were used, which are cell lines (melanoma) established from human malignant melanoma patients by US NIH. These cells have been activated and have IL-10 production ability.
In a culture medium (10% FCS-containing RPMI1640, penicillin and streptomycin added), respective melanoma cells were seeded in a 6-well plate at a concentration of 1×10^5 cells/2 ml/well. After seeding, compound 1 was added to a given concentration and the cells were cultured for 24 hr. After 24 hr, the culture supernatant was recovered, and the concentration of IL-10 in the supernatant was measured. For the measurement of IL-10 concentration, Human IL10 OptEIA ELISA set (BD, #555157) was used.

[2] = system: 624 mel cells and 928 mel cells; assay: Influence on proliferation of melanoma cells; type: cell-based, human; settings: 24 hr, any cell
[3] = system: spontaneous breast cancer of transgenic mouse (MMTV-Wnt-1); assay: Tumor volume in mice serially transplanted with spontaneous breast cancer of transgenic mouse (MMTV-Wnt-1); type: in vivo, mouse (C57BL/6J); settings: compound A 50 mg/kg twice per day oral, antibody 10 mg/kg twice per week i.p.
Description: Effect of combined use of CBP/catenin inhibitor (compound A) and anti-mouse PD-1 (CD279) antibody in animal model serially transplanted with subcultured spontaneous breast cancer of transgenic mouse (MMTV-Wnt-1)
Spontaneous breast cancer of transgenic mouse (MMTV-Wnt-1), in which Wnt-1 had been locally expressed in mammary gland epithelial cells, was harvested, and serially transplanted to the background line mouse (C57BL/6J) with trocar. When the serially transplanted tumor became about 1.5 g, it was isolated, processed into fragments of about 30 mg, and subcutaneously transplanted to the side of the body of 5 mice (C57BL/6J) per each group. Engraftment of the tumor was confirmed, and compound A (50 mg/kg, twice per day, 21 days, oral administration) and anti-mouse PD-1 antibody (Clone: RMP1-14, BioXCell) (10 mg/kg, twice per week, 3 weeks, intraperitoneal administration) were each administered singly or in combination.
With the day of the start of administration as day 0, the major axis and the minor axis of the tumor developed in each mouse were measured by Digimatic Caliper (Mitsutoyo) on days 4, 7, 11, 14, 18, and 21.
The tumor volume was calculated according to the following formula. tumor volume TV(mm^3)=tumor major axis(mm)×tumor minor axis^2(mm^2)/2

[4] = cited from earlier work
[5] = system: human breast cancer cell line (MDA-MB-231); assay: Side population (cancer stem cell) fraction of MDA-MB-231 after compound treatment; type: cell-based; settings: 0.3 μM in culture medium, after 4 days; untreated 1.6% SP cells
Method: To a side population fraction (cancer stem cells were considered to have been concentrated) obtained by two-dimensional cell sorting of human breast cancer cell line (MDA-MB-231) with Hoechst Blue and Hoechst Red was added 0.3 μM CBP/catenin inhibitor (compound 2) in the culture medium. After 4 days, the side population fraction almost disappeared (when untreated with medicament, 1.6% SP cells were detected, whereas 0% was detected in compound 2 treatment group), and the cancer stem cells were considered to have differentiated (FIG. 3).

[6] = system: bile duct cancer; settings: cited from earlier work

With `C[C@H]1[C@H]2N(C(=O)CN(C)N2C(=O)NCc2ccccc2)[C@@H](Cc2ccc(OP(=O)(O)O)cc2)C(=O)N1Cc1cccc2cccnc12` [compound 1, 4-(((6S,9S,9aS)-1-(benzylcarbamoyl)-2,9-dimethyl-4,7-dioxo-8-(quinolin-8-ylmethyl)octahydro-1H-pyrazino[2,1-c][1,2,4]triazin-6-yl)methyl)phenyl dihydrogen phosphate] the “production of IL-10” value [1] was “production of IL-10 was suppressed”, the “influence on the proliferation” value ([2]; 0.2 μM) was “an influence on the proliferation was not confirmed” and the “influence on the proliferation” value ([2]; 1 μM) was “an influence on the proliferation was confirmed”.

In the case of `C=CCN1CC(=O)N2[C@@H](Cc3ccc(O)cc3F)C(=O)N(Cc3cccc(N4CC(N5CCN(CC)CC5)C4)n3)C[C@@H]2N1C(=O)NCc1ccccc1` [compound A, (6S,9aS)-N-benzyl-8-((6-(3-(4-ethylpiperazin-1-yl)azetidin-1-yl)pyridin-2-yl)methyl)-6-((2-fluoro-4-hydroxyphenyl)methyl)-4,7-dioxo-2-(prop-2-en-1-yl)-octahydro-1H-pyrazino[2,1-c][1,2,4]triazine-1-carboxamide], the “tumor volume TV, Mean ± SEM” value ([3]; Day 0) is reported as 75.3 ± 9.2 mm^3, the “tumor volume TV, Mean ± SEM” value ([3]; Day 4) is reported as 83.2 ± 8.5 mm^3 and the “tumor volume TV, Mean ± SEM” value ([3]; Day 7) is reported as 90.5 ± 22.3 mm^3. The “tumor volume TV, Mean ± SEM” value ([3]; Day 11) was 123.1 ± 40.5 mm^3, the “tumor volume TV, Mean ± SEM” value ([3]; Day 14) was 140.4 ± 45.1 mm^3 and the “tumor volume TV, Mean ± SEM” value ([3]; Day 18) was 221.6 ± 47.9 mm^3. The “tumor volume TV, Mean ± SEM” value ([3]; Day 21) was 237.7 ± 41.2 mm^3.

For `C[C@H]1[C@H]2N(C(=O)CN(C)N2C(=O)NCc2ccccc2)[C@@H](Cc2ccc(OP(=O)(O)O)cc2)C(=O)N1Cc1cccc2cccnc12` [PRI-724], the “toxicity in human compared with conventional Wnt inhibitors having other mechanisms” value [4] is listed as “clearly less toxic in human than conventional Wnt inhibitors”.

With `C[C@H]1[C@H]2N(C(=O)CN(C)N2C(=O)NCc2ccccc2)[C@@H](Cc2ccc(O)cc2)C(=O)N1Cc1cccc2cccnc12` [compound 2, (6S,9S,9aS)-N-benzyl-6-(4-hydroxybenzyl)-2,9-dimethyl-4,7-dioxo-8-(quinolin-8-ylmethyl)octahydro-1H-pyrazino[2,1-c][1,2,4]triazine-1-carboxamide] the “SP cells detected (side population fraction)” value [5] was 0%.

For `O=C1[C@H](Cc2ccc(O)cc2)N2C(=O)CCN(C(=O)NCc3ccccc3)[C@H]2CN1Cc1cccc2ccccc12` [ICG-001, (6S,9aS)-N-benzyl-6-[(4-hydroxyphenyl)methyl]-8-(naphthalen-1-ylmethyl)-4,7-dioxo-3,6,9,9a-tetrahydro-2H-pyrazino[1,2-a]pyrimidine-1-carboxamide], the “proliferation inhibitory effect in animal model” value [6] is listed as “strong proliferation inhibitory effect”.
